Reference: patent publication US11117918B2, “Enzyme-directed immunostimulant and uses thereof” (Washington State University, priority 2016, dated 2021)

Assays:
[1] = system: JAWSII cells; assay: JAWSII ELISA cytokine production (TNF, IL-6, IL-12); type: cell-based, murine
Method: Measurement of JAWSII cytokine production was performed similarly to manufacturer instructions. The cytokines analyzed were IL-12, IL-6, and TNF. For the cytokine assays, 1×10^5 JAWSII cells were seeded in an optically clear bottomed 6-well plate in 1 mL of complete assay media (identical to JAWSII growth media) for a density of 1×10^5 cells/well. Cells were incubated for 42 h. For co-culture experiments with JAWSII and B16 or β-galactosidase-enriched B16 cells, JAWSII cells were seeded at a density of 1×10^5 cells/well and allowed to adhere for 42 h before the addition of B16 cells, which were seeded at a density of 1×10^5 cells/well. For co-culture experiments with JAWSII and β-galactosidase-enriched B16 cells, JAWSII cells were seeded at a density of 1×10^5 cells/well and allowed to adhere for 42 h before the addition of β-galactosidase-enriched B16 cells, which were seeded at a density of 1×10^5 cells/well.
For experiments with β-gal, a stock solution (500 U/mL, where 1 U=1 μmol/min) was used. A final enzymatic activity of 1 U/well was achieved by addition of 2 μL of the 500 U/mL stock solution to each well. Stock solutions of Imiquimod or (6) in DMSO (1.15 and 1.49 mg/mL, respectively) were then added to the appropriate wells to achieve a final concentration of 5 μM. The cells were incubated for 16 h (37° C., 5% CO2) before supernatant was collected. Cells were pelletized (200 RCF, 10 min) and removed. Supernatant was analyzed for cytokines without further dilution according to manufacturer instructions for ELISA. Absorbance was analyzed at 450 nm and standard curves were used to determine absolute cytokine concentrations.

[2] = system: RAW-Blue cells; assay: RAW-Blue colorimetric assay (NF-κB transcription); type: cell-based
Method: Measurement of RAW-Blue cell activation was performed similarly to manufacturer instructions. For the NF-κB assay, 1×10^5 RAW-Blue cells were seeded in an optically clear bottomed 96-well plate in 180 μL of complete assay media (identical to B16 media) at a density of 1×10^5 cells/well. For co-culture experiments with RAW-Blue and B16 or β-galactosidase-enriched B16 cells, RAW-Blue cells were seeded at a density of 1×10^5 cells/well and were allowed to adhere for 4 h before the addition of the B16 cells, which were seeded at a density of 1×10^5 cells/well. For co-culture experiments with RAW-Blue and β-galactosidase-enriched B16 cells, RAW-Blue cells were seeded at a density of 1×10^5 cells/well and were allowed to adhere for 4 h before the addition off β-galactosidase-enriched B16 cells, which were seeded at a density of 1×10^5 cells/well.
For experiments with β-gal, a stock solution (500 U/mL, where 1 U=1 μmol/min) was used. A final enzymatic activity of 1 U/well was achieved by addition of 2 μL of the 500 U/mL stock solution to each well. Imiquimod or (6) were prepared as 1.15 and 1.49 mg/mL stock solutions, respectively, in DMSO, and were added to the appropriate wells to achieve the specified final concentrations in each experiment ranging from 0.1 to 10 μM. […] The PNPP assays were incubated for 3 h (37° C., 5% CO2), and the absorbance was measured at 405 nm. […]

[3] = system: AT3B-1 prostate cancer cell line (overexpresses P-glycoprotein 1); assay: AT3B-1 cells treated with pro-immunostimulant, absorbance at 420 nm; type: cell-based, rat; details: 10 mM dose, 2−200×10^4 cells/well, 72 h
Method: To evaluate the disclosed compounds for their effect against multidrug-resistant cells and possible pathogen infection, compound 6 was exposed to a multidrug-resistant AT3B-1 prostate cancer cell line that is known to overexpress P-glycoprotein 1 (P-gp). AT3B-1 cells were plated in an optically clear bottomed 96-well plate at a range of densities (2−200×10^4 cells/well) in 180 μL of complete cell media. Each cell density was tested in triplicate with and without a 10 mM dose of compound 6. For wells with compound 6, 20 μL of a 100 mM stock solution of compound 6 in DMSO was used. As a control experiment, compound 6 was converted by exogenous α-Mannosidase (0.1 U/mL) in triplicate. The plate was incubated (37° C., 5% CO2) for 72 h before measuring the absorbance at 420 nm.
The AT3B-1 cell line (ATCC CRL-2375, rat prostate epithelial malignant carcinoma) were grown in complete culture media composed of Roswell Park Memorial Institute (RPMI) 1640 medium with 4.5 g/L glucose, 2 mM L-glutamine, 10,000 U/mL penstrep, 10 mM HEPES and supplemented with 10% HI-FBS and 1 μM doxorubicin. Media was changed every 3-4 days omitting the doxorubicin, and cells were passaged once per week. Passaging involved changing media, counting, and seeding 3×10^5 cells in 35 mL of new complete media in a new T-175 culture flask.

Q: Which “pro-inflammatory cytokine production (TNF, IL-6, IL-12)” value ([1]; 5 μm, without β-galactosidase) does the source give for “4-Imiquimod-2-nitrophenyl-galactopyranoside [compound 6]” here?
A: not induce significant pro-inflammatory cytokine production

Q: And the pro-inflammatory cytokine production ([1]; co-cultures of JAWSII and β-galactosidase-enriched B16 melanoma cells)?
A: resulted in the production of pro-inflammatory cytokines

Q: And the “cytokine production relative to Imiquimod, all three cytokines (TNF, IL-6, IL-12)” value ([1]; with exogenous β-galactosidase, equimolar Imiquimod)?
A: > 80%

Q: And the NF-κB transcription ([2]; co-cultures of β-galactosidase-enriched B16 cells and RAW-Blue cells, relative to unaltered B16 co-cultures or RAW-Blue cells alone)?
A: enhanced

Q: What about the RAW-Blue cell activity ([2]; compound alone, relative to compound with 1 U β-galactosidase or Imiquimod, 16 h) of the same substance?
A: abrogated

Q: What about the “interaction with P-gp” value [3] of the same substance?
A: interacting with P-gp
